Experimental data reported in patent US11299496B2, “Ligands for alpha-7 nicotinic acetylcholine receptors and methods of treating neurological and inflammatory conditions” (Northeastern University, priority 2014, dated 2022).

Target: T1, human alpha-7 nAChR (Homo sapiens, UniProt P36544)
T1 construct: expressed in transfected cells; host or cells: Xenopus laevis oocytes (cRNA injection)
Test: Two-electrode voltage clamp of alpha-7 nAChR expressed in Xenopus oocytes (net charge)
Assay type: cell-based
Conditions: area under the curve of current vs. time; for Charge Alone: compound alone acting as an allosteric agonist; for Charge +C: compound together with choline or ACh, includes PAM and ago-PAM activity; call rule not given here
Experimental: The human alpha-7 nAChR receptor clone was obtained from Dr. Jon Lindstrom {University of Pennsylvania, Philadelphia, Pa.), aid the RIC-3 clone from Dr. Millet Treinin (Hebrew University, Jerusalem, Israel) for the purpose of co-injection with a7 to improve the level and speed of receptor expression (Halevi et al., 2003). After linearization and purification of cloned cDNA's, RNA, transcripts were prepared rising the appropriate mMessage mMachine kit tiom Ambion (Austin, Tex.).
Expression in X, laeivis Oocytes
Oocytes were obtained from mature (>9 cm) female Xenopus laeivis African frogs (Nasco, Ft. Atkinson, Wis.). Frogs were anesthetized in 0.7 g/L solution of ethyl 3-aminobenzoate methanesulfonate buffered with sodium bicarbonate, and oocytes were surgically removed through an abdominal incision. Harvested oocytes were treated with 1.25 mg/ml collagenase (Worthington Biochemicals, Freehold, N.J.) in calcium-free Barth's solution (88 mM NaCl, 1 mM KCl, 2.38 mM NaHCO3, 0.82 mM MgSO4, 15 mM HEPES, 12 mg/L tetracycline, pH 7.6) for 3-4 hours to remove the follicular layer. Stage-5 oocytes were isolated and injected with 50 nL (5-20 ng) of human alpha-7 and RIC-3 cRNA. Suitable levels of receptor expression were typically achieved 2-6 days after injection of cRNA. For experiments involving the PAM 4BP-TQS/GAT-107, where standard levels of expression result in ion currents too large to be recorded in voltage clamp, experiments were typically conducted 1-3 days after RNA injection.
Two-electrode voltage clamp experiments were conducted using OpusXpress6000A (Molecular Devices, Sunnyvale, Calif.), an integrated system that provides automated impalement and voltage clamp of up to eight oocytes in parallel. Both the current and voltage electrodes were filled with 3 M KCl, and oocytes were clamped at a holding potential of −60 mV. Data were collected at 50 Hz and filtered at 20 Hz. The oocytes were bath-perfused with Ringer's solution (115 mM NaCl, 10 mM HEPES, 2.5 mM KCl, 1.8 mM CaCl2, pH 7.3), and agonist solutions were delivered from a 96-well drug plate using disposable tips. Flow rates were set at 2 mL/min, with each drug or control solution delivered in 12 s durations, followed˜by 181 s washouts with Ringer's unless noted otherwise.
Experimental Protocols and Data Analysis
Responses of human alpha-7 receptors to agonists were measured as both peek current and net charge measured over a 120 s period beginning with the compound application (Papke and Papke, 2002). […] In experiments involving positive allosteric modulators (PAMs), the fast desensitization of alpha-7 was eliminated, allowing peak currents to be used as a valid measurement of the receptor-mediated responses (Wang et al., 2012; Williams et al., 2011).
Oocytes received two control ACh applications prior to receiving any drug in order to establish a steady reference response, and they received one or more control ACh applications at the end of all experiments. For experiments involving drug incubation through bath applications, all responses were normalized to the average of two ACh control responses taken immediately prior to the switch of bath solution, for each cell individually. These normalization procedures had the effect of compensating for differing levels of receptor expression among the multiple oocytes used in each experiment. Each experiment was conducted on at least four oocytes, with mean values and standard errors (S.E.M.) calculated from their normalized responses. […]

T1 sequence (P36544 23-502): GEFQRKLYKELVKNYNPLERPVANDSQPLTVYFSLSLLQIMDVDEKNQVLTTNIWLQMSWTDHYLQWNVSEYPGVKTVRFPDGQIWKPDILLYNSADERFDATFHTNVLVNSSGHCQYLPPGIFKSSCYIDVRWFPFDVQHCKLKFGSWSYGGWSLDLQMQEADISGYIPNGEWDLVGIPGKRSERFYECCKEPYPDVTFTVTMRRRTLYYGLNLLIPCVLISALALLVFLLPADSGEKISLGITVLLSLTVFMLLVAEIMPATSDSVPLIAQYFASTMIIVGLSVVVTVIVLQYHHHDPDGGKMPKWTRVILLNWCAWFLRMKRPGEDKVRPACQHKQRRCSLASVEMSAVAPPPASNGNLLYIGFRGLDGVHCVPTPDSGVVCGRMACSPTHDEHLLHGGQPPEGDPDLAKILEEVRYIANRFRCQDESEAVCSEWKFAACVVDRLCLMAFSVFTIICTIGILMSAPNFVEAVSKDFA

Structure (SMILES)	Charge Alone	Charge +C
O=S(=O)(c1ccc2c(c1)[C@H]1C=CC[C@H]1[C@@H](c1ccc(Br)cc1)N2)N1CCCC1 [Compound 57, (3aR,4S,9bS)-4-(4-bromophenyl)-8-(pyrrolidin-1-ylsulfonyl)-3a,4,5,9b-tetrahydro-3H-cyclopenta[c]quinolone]	Inactive	Inactive
NS(=O)(=O)c1ccc2c(c1)[C@H]1C=CC[C@H]1[C@@H](c1cc(Br)sc1Br)N2 [Compound 67, (3aR,4S,9bS)-4-(2,5-dibromothiophen-3-yl)-3a,4,5,9b-tetrahydro-3H-cyclopenta[c]quinoline-8-sulfonamide]		100
NS(=O)(=O)c1ccc2c(c1)[C@H]1C=CC[C@H]1[C@@H](c1ccc(CCCBr)cc1)N2 [Compound 71, 4-(4-(3-bromopropyl)phenyl)-3a,4,5,9b-tetrahydro-3H-cyclopenta[c]quinoline-8-sulfonamide]	1	284
CC(C)NS(=O)(=O)c1ccc2c(c1)[C@H]1C=CC[C@H]1[C@@H](c1ccc(Br)cc1)N2 (stereo in doubt) [Compound 100, 4-(4-bromophenyl)-N-isopropyl-3a,4,5,9b-tetrahydro-3H-cyclopenta[c]quinoline-8-sulfonamide]	Inactive	Inactive
NS(=O)(=O)c1ccc2c(c1)[C@H]1C=CC[C@H]1[C@@H](c1csc(Br)n1)N2 (stereo in doubt) [Compound 85, 4-(2-bromothiazol-4-yl)-3a,4,5,9b-tetrahydro-3H-cyclopenta[c]quinoline-8-sulfonamide]	10	166
NS(=O)(=O)c1ccc2c(c1)[C@H]1C=CC[C@H]1[C@@H](c1ccsc1)N2 (stereo in doubt) [Compound 15, 4-(thiophen-3-yl)-3a,4,5,9b-tetrahydro-3H-cyclopenta[c]quinoline-8-sulfonamide]		500
O=S(=O)(c1ccc2c(c1)[C@H]1C=CC[C@H]1[C@@H](c1ccc(Br)cc1)N2)N1CCOCC1 (stereo in doubt) [Compound 23, 4-((4-(4-bromophenyl)-3a,4,5,9b-tetrahydro-3H-cyclopenta[c]quinolin-8-yl)sulfonyl)morpholine]	Inactive	Inactive
[N-]=[N+]=Nc1c(F)c(F)c([C@H]2Nc3ccc(S(N)(=O)=O)cc3[C@H]3C=CC[C@H]32)c(F)c1F [Compound 43, (3aR,4S,9bS)-4-(4-azido-2,3,5,6-tetrafluorophenyl)-3a,4,5,9b-tetrahydro-3H-cyclopenta[c]quinoline-8-sulfonamide]		5.5
CCNS(=O)(=O)c1ccc2c(c1)[C@H]1C=CC[C@H]1[C@@H](c1ccc(Br)cc1)N2 [Compound 114]	Inactive	Inactive
CCOC(=O)Nc1ccc([C@H]2Nc3ccc(S(N)(=O)=O)cc3[C@H]3C=CC[C@H]32)cc1 (stereo in doubt) [Compound 60, ethyl(4-(8-sulfamoyl-3a,4,5,9b-tetrahydro-3H-cyclopenta[c]quinolin-4-yl)phenyl)carbamate]		276
NS(=O)(=O)c1ccc2c(c1)[C@H]1OCC[C@H]1[C@@H](c1ccc(Br)cc1)N2 (stereo in doubt) [Compound 3, 4-(4-bromophenyl)-2,3,3a,4,5,9b-hexahydrofuro[3,2-c]quinoline-8-sulfonamide]	Inactive	Inactive
CCC(C)CNS(=O)(=O)c1ccc2c(c1)[C@H]1C=CC[C@H]1[C@@H](c1ccc(Br)cc1)N2 (stereo in doubt) [Compound 109, 4-(4-bromophenyl)-N-(2-methylbutyl)-3a,4,5,9b-tetrahydro-3H-cyclopenta[c]quinoline-8-sulfonamide]	Inactive	Inactive
CNS(=O)(=O)c1ccc2c(c1)[C@H]1C=CC[C@H]1[C@@H](c1ccc(Br)cc1)N2 (stereo in doubt) [Compound 22, 4-(4-bromophenyl)-N-methyl-3a,4,5,9b-tetrahydro-3H-cyclopenta[c]quinoline-8-sulfonamide]	Inactive	Inactive
NS(=O)(=O)c1ccc2c(c1)[C@H]1C=CC[C@H]1[C@@H](c1ccc(Br)cn1)N2 (stereo in doubt) [Compound 97, 4-(5-bromopyridin-2-yl)-3a,4,5,9b-tetrahydro-3H-cyclopenta[c]quinoline-8-sulfonamide]	7	357
NS(=O)(=O)c1ccc2c(c1)[C@H]1C=CC[C@H]1[C@@H](c1ccc(-c3ccccc3)cc1)N2 (stereo in doubt) [Compound 12, 4-([1,1′-biphenyl]-4-yl)-3a,4,5,9b-tetrahydro-3H-cyclopenta[c]quinoline-8-sulfonamide]		76
NS(=O)(=O)c1ccc2c(c1)N[C@H](c1ccc(Br)cc1)[C@@H]1CC=C[C@H]21 (stereo in doubt) [Compound 10, 4-(4-bromophenyl)-3a,4,5,9b-tetrahydro-3H-cyclopenta[c]quinoline-7-sulfonamide]	Inactive	Inactive
O=S(=O)(c1ccc2c(c1)[C@@H]1C=CC[C@@H]1[C@H](c1ccc(Br)cc1)N2)N1CCCC1 [Compound 56, (3aS,4R,9bR)-4-(4-bromophenyl)-8-(pyrrolidin-1-ylsulfonyl)-3a,4,5,9b-tetrahydro-3H-cyclopenta[c]quinolone]	Inactive	Inactive
NS(=O)(=O)c1ccc2c(c1)[C@H]1C=CC[C@H]1[C@@H](c1ccc(C3(C(F)(F)F)N=N3)cc1)N2 [Compound 44, (3aR,4S,9bS)-4-(4-(3-(trifluoromethyl)-3H-diazirin-3-yl)phenyl)-3a,4,5,9b-tetrahydro-3H-cyclopenta[c]quinoline-8-sulfonamide]	14	350
CCCNS(=O)(=O)c1ccc2c(c1)[C@H]1C=CC[C@H]1[C@H](c1c(C)c(C)cc(C)c1C)N2 (stereo in doubt) [Compound 111, N-propyl-4-(2,3,5,6-tetramethylphenyl)-3a,4,5,9b-tetrahydro-3H-cyclopenta[c]quinoline-8-sulfonamide]	Inactive	Inactive
NS(=O)(=O)c1ccc2c(c1)[C@H]1C=CC[C@H]1[C@@H](c1ccc(NC(=O)OC3C4CC5CC(C4)CC3C5)cc1)N2 (stereo in doubt) [Compound 63, adamantan-2-yl (4-(8-sulfamoyl-3a,4,5,9b-tetrahydro-3H-cyclopenta[c]quinolin-4-yl)phenyl)carbamate]	5	25
O=S(=O)(NC1CCC1)c1ccc2c(c1)[C@H]1C=CC[C@H]1[C@@H](c1ccc(Br)cc1)N2 [Compound 104, 4-(4-bromophenyl)-N-cyclobutyl-3a,4,5,9b-tetrahydro-3H-cyclopenta[c]quinoline-8-sulfonamide]	Inactive	Inactive
NS(=O)(=O)c1ccc2c(c1)[C@H]1C=CC[C@H]1[C@@H](c1ccc(N=C=S)cc1)N2 (stereo in doubt) [Compound 26, 4-(4-isothiocyanatophenyl)-3a,4,5,9b-tetrahydro-3H-cyclopenta[c]quinoline-8-sulfonamide]	0	22
